Experimental data reported in patent publication US20100311718A1, “Treatment of Psychoses with Dibenzothiazepine Antipsychotic” (AstraZeneca AB, priority 2004, published 2010).
Counter-ions that a name gives are not always drawn. Like-named read-outs stand apart in the source and are kept apart here. Marks after values point to notes of the source that are not given here.

Tests used:
[1] = system: patients with bipolar depression; conditions: monotherapeutic agent; cited from earlier work
[2] = system: patients with bipolar depression; conditions: 8 week trial; difference not statistically significant; cited from earlier work
[3] = system: patients with bipolar depression; conditions: 7-week trial, patients who completed the study; cited from earlier work
[4] = system: patients with bipolar depression
Excerpt: Criteria for Emergent Mania (any one of the following): AE (Adverse Event) or SAE
(Serious Adverse Event) of Mania. Withdrawal for AE of mania. YMRS (Young Mania Rating Scale) ≧16 on 2 consecutive or final assessment.

[5] = system: patients with bipolar depression; conditions: for Change in MADRS, Mean (SD): Bipolar I
Excerpt: (§1) The treatment was with quetiapine or placebo. There were 43% male and 57% female patients. The demographics also included 67% bipolar I and 33% bipolar II.

[6] = system: patients with bipolar depression; remark: listed apart in the source
Excerpt: as §1

[7] = system: patients with bipolar depression; remark: listed apart in the source
Excerpt: as §1

[8] = system: patients with bipolar depression; remark: listed apart in the source
Excerpt: as §1

[9] = system: patients with bipolar depression; conditions: for Improvement in mean HAM-A score: endpoint (Week 8), P<0.05 vs placebo
Excerpt: as §1

[10] = system: patients with bipolar depression; conditions: both doses, p<0.001
[11] = system: patients with bipolar depression; remark: listed apart in the source
Excerpt: as §1

[12] = treatment of bipolar depression
[13] = OC (completer) population, 300 mg/day
[14] = OC (completer) population, 600 mg/day

O=C([O-])[O-].[Li+].[Li+] [Lithium carbonate]
Patients with bipolar depression in whom monotherapy is effective [1]: approximately 50%

CCCC(CCC)C(=O)O [divalproex]
Percentage of patients with a 50% reduction in HAM-D scores without mania [2]: numerical improvement over placebo

Nc1nnc(-c2cccc(Cl)c2Cl)c(N)n1 [lamotrigine]
HAM-D and MADRS scores [3]: produced improvement in HAM-D and MADRS scores

OCCOCCN1CCN(C2=Nc3ccccc3Sc3ccccc32)CC1 [quetiapine, 2-[2-(4-dibenzo [b,f] 1,4]thiazepin-11-yl-1-piperazinyl)ethoxy]-ethanol fumarate]
Treatment-emergent mania, number of patients ([4]; 300 mg): 6 | Treatment-emergent mania, percent of patients ([4]; 300 mg): 3.5% | Treatment-emergent mania, number of patients ([4]; 600 mg): 4 | Treatment-emergent mania, percent of patients ([4]; 600 mg): 2.4% | Association with treatment-emergent mania (switching) [4, 12]: not associated with treatment-emergent mania | MADRS effect size ([5]; Bipolar I & II): 0.6 | Change in MADRS, Mean (SD) ([5]; ITT population, 300 mg/day): −17.1 (9.7) | Change in MADRS, Mean (SD) ([5]; ITT population, 600 mg/day): −18.2 (11.0) | MADRS Change ([5]; ITT population, 300 mg/day): −16.5 | MADRS Change ([5]; ITT population, 600 mg/day): −16.8 | MADRS Change [5, 13]: −18.6 | MADRS Change [5, 14]: −20.3 | Efficacy against depressive symptoms (MADRS and HAM-D) ([5]; both doses, p<0.001): Efficacy against depressive symptoms in both doses from Day 8 on | Advantage over placebo, MADRS Responder analysis ([5]; in vivo): 20% | Advantage over placebo, remission analysis ([5]; in vivo): 20% | HAM-D Change ([6]; ITT population, 300 mg/day): −13.4 | HAM-D Change ([6]; ITT population, 600 mg/day): −13.9 | HAM-D Change [6, 13]: −15.0 | HAM-D Change [6, 14]: −17.0 | Q-LES-Q change (Δ), Mean (SD) ([7]; Week 4, 300 mg): 8.6 (9.6)^a | Q-LES-Q change (Δ), Mean (SD) ([7]; Week 4, 600 mg): 11.0 (10.7)* | Q-LES-Q change (Δ), Mean (SD) ([7]; Week 8, 300 mg): 11.7 (10.4)^a | Q-LES-Q change (Δ), Mean (SD) ([7]; Week 8, 600 mg): 16.3 (10.3)* | Q-LES-Q change (Δ), Mean (SD) ([7]; Week 8 LOCF, 600 mg): 12.2 (11.6)* | PSQI change (Δ), Mean (SD) ([8]; Week 4, 300 mg): −4.7 (4.2)* | PSQI change (Δ), Mean (SD) ([8]; Week 4, 600 mg): −5.3 (4.9)* | PSQI change (Δ), Mean (SD) ([8]; Week 8, 300 mg): −5.3 (4.3)* | PSQI change (Δ), Mean (SD) ([8]; Week 8, 600 mg): −6.4 (4.3)* | PSQI change (Δ), Mean (SD) ([8]; Week 8 LOCF, 300 mg): −5.1 (4.3)* | Sleep component: Sleep disturbance, Mean (SD) ([8]; Week 8 LOCF, 300 mg): 1.1 (0.6) | Sleep component: Sleep duration, Mean (SD) ([8]; Week 8 LOCF, 300 mg): 0.7 (0.8) | Sleep component: Sleep dysfunction, Mean (SD) ([8]; Week 8 LOCF, 300 mg): 1.3 (0.9) | Sleep component: Sleep latency, Mean (SD) ([8]; Week 8 LOCF, 300 mg): 1.3 (1.0) | Sleep component: Sleep medication, Mean (SD) ([8]; Week 8 LOCF, 300 mg): 0.4 (0.9) | Sleep component: Sleep quality, Mean (SD) ([8]; Week 8 LOCF, 300 mg): 1.0 (0.8) | PSQI change (Δ), Mean (SD) ([8]; Week 8 LOCF, 600 mg): −5.5 (4.8)* | Sleep component: Sleep disturbance, Mean (SD) ([8]; Week 8 LOCF, 600 mg): 1.2 (0.7) | Sleep component: Sleep duration, Mean (SD) ([8]; Week 8 LOCF, 600 mg): 0.5 (0.8) | Sleep component: Sleep dysfunction, Mean (SD) ([8]; Week 8 LOCF, 600 mg): 1.4 (0.9) | Sleep component: Sleep latency, Mean (SD) ([8]; Week 8 LOCF, 600 mg): 1.3 (1.1) | Sleep component: Sleep medication, Mean (SD) ([8]; Week 8 LOCF, 600 mg): 0.4 (0.9) | Sleep component: Sleep quality, Mean (SD) ([8]; Week 8 LOCF, 600 mg): 0.8 (0.8) | Improvement in mean HAM-A score ([9]; about 300 mg/day): −8.6 | Improvement in mean HAM-A score ([9]; about 600 mg/day): −8.7 | Efficacy in anxiety symptoms (HAM-A) ([9]; both doses, p<0.01): Efficacy in anxiety symptoms (HAM-A) in both doses from Day 8 on | Clinical Improvement (CGI) [10]: Clinical Improvement (CGI) in both doses from Day 8 on | Adverse event trends ([11]; in vivo): No unexpected AE trends | Changes in weight ([11]; in vivo): Small dose related changes in weight | Tolerability [11, 12]: well-tolerated in the treatment of bipolar depression with a low incidence of EPS (extrapyramidal symptoms), prolactin, sexual dysfunction and weight gain
